Tests used:
[1] = formation of the gadolinium complex; as described in WO 2014/174120, DOTA-Gd for comparison; cited from earlier work
[2] = decomplexation kinetics (kinetic inertia) in acidic aqueous solution, pH 1.2, 37° C.; format: physicochemical; conditions: same conditions (pH 1.2, 37° C.); linear gadolinium complexes
Description: What is more, iso4 is the group of isomers which has the best kinetic inertia (also known as the kinetic stability) among the four groups isolated by the inventors. Specifically, the inventors evaluated the kinetic inertia of the four groups of isomers by studying their decomplexation kinetics in acidic aqueous solution (pH=1.2), at 37° C. The half-life time values (T1/2) which were determined for each of the groups of isomers are indicated in table 1 below, the half-life time corresponding to the time after which 50% of the amount of complex initially present has been dissociated, according to the following decomplexation reaction (equation 2): […]

[3] = formulation tests (concentrations of trometamol and of free ligand); format: physicochemical
Description: Various concentrations of trometamol from 0 to 100 mM were tested.
Various concentrations of macrocyclic ligand of formula (L) from 0 to 2.5 mM were tested.

O=C([O-])CN1CCN(CC(=O)[O-])CCN(CC(=O)O)CCN(CC(=O)[O-])CC1.[Gd+3] [DOTA-Gd, gadolinium complex of 1,4,7,10-tetraazacyclododecane-N,N′,N″,N′″-tetraacetic acid]
log (Ktherm), stability constant [1]: 25.6

CNC(=O)CN(CCN(CCN(CC(=O)[O-])CC(=O)NC)CC(=O)[O-])CC(=O)[O-].[Gd+3] [gadodiamide]
kinetic inertia, dissociation in words [2]: dissociate instantaneously

O=C([O-])CN(CCN(CC(=O)[O-])CC(=O)[O-])CCN(CC(=O)[O-])CC(=O)[O-].[Gd+3] [gadopentetate]
kinetic inertia, dissociation in words [2]: dissociate instantaneously

O=C(CCC(C(=O)O)N1CCN(C(CCC(=O)NCC(O)CO)C(=O)O)Cc2cccc(n2)CN(C(CCC(=O)NCC(O)CO)C(=O)O)CC1)NCC(O)CO (centres unmarked) [macrocyclic ligand of formula (L)]
release of free Gd during the process and during the lifetime of the product ([3]; content of 1 mM (0.08% m/v or 0.2 mol/mol %), 0 to 2.5 mM tested): absence of release of free Gd

NC(CO)(CO)CO [trometamol, Tris(hydroxymethyl)aminomethane]
pH stability of the formulation ([3]; content of 10 mM (0.12% w/v), 0 to 100 mM tested): sufficient to ensure the pH stability of the formulation

Reference: patent US20230339945A1, “METHOD FOR PREPARING A CHELATING LIGAND DERIVED FROM PCTA” (GUERBET, priority 2020, published 2023)
